Laboratory results taken from patent US4426390A, “Novel β-lactam compounds, process for producing thereof, and use thereof as medicines” (Sanraku-Ocean Co., Ltd., priority 1980, dated 1984).
≈ marks a conversion by molar mass, not a printed value.

Columns and labels:
[1] = tested on: Enterobacter aerogenes E19; assay: MIC by agar dilution method; type: cell-based; conditions: Klebsiella aerogenes, 37° C., 18 hours
Description: (§1) The MIC is measured by an agar dilution method based on the standard method of the Japanese Society of Chemotherapy (Japanese Society of Chemotherapy: The Revised Method of Determination of MIC Values, Chemotherapy 22, 1126-1128, […]). Specifically, the antibiotic is serially diluted with a 1/50 M phosphate buffer at a pH of 7.3 to prepare a twofold dilution series. One milliliter of each dilution and 9 ml of an agar medium (Heart Infusion Agar; a product of Difco Laboratories) are mixed and allowed to solidify in a Petri dish having a diameter of 9 cm. One loopful of the stock culture of the test microbe is inoculated in trypto-soy buillon (a product of Eiken Kagaku Co., Ltd.) and incubated at 37° C. for 18 hours. The resulting culture broth is diluted to a concentration of about 10^6 cells/ml with physiological saline and inoculated on the agar plate by means of a microplanter.

[2] = tested on: Alcaligenes Faecolis A1; assay: MIC by agar dilution method; type: cell-based; conditions: Alcaligenes Faecolis A1; agar dilution, 37° C., 18 hours; read-out: MIC
Description: as §1

[3] = tested on: Staphylococcus aureus 209P; assay: MIC by agar dilution method; type: cell-based; conditions: 37° C., 18 hours
Description: as §1

[4] = tested on: P. vulgaris GN76; assay: MIC by agar dilution method; type: cell-based; conditions: Proteus vulgaris, 37° C., 18 hours
Description: as §1

[5] = tested on: Bacillus subtillis ATCC 6633; assay: MIC by agar dilution method; type: cell-based; conditions: ATCC6633; Bacillus subtillis ATCC 6633; agar dilution, 37° C., 18 hours; read-out: MIC
Description: as §1

[6] = tested on: S. epidermidis; assay: MIC by agar dilution method; type: cell-based; conditions: Staphylococcus epidermidis, 37° C., 18 hours
Description: as §1

[7] = tested on: Pseudomonas aenginosa IFO3445; assay: MIC by agar dilution method; type: cell-based; conditions: 37° C., 18 hours
Description: as §1

[8] = tested on: Ser. marcesceus T55; assay: MIC by agar dilution method; type: cell-based; conditions: 37° C., 18 hours
Description: as §1

[9] = tested on: S. aureus Russell; assay: MIC by agar dilution method; type: cell-based; conditions: Staphylococcus aureus, 18 h
Description: as §1

[10] = tested on: Ps. aeruginosa NCTC10490; assay: MIC by agar dilution method; type: cell-based; conditions: Pseudomonas aeruginosa, 37° C., 18 hours
Description: as §1

[11] = tested on: Sarcina lutea S19; assay: MIC by agar dilution method; type: cell-based; conditions: Micrococcus luteus, 37° C., 18 hours
Description: as §1

[12] = tested on: Ent. cloacae 45; assay: MIC by agar dilution method; type: cell-based; conditions: Enterobacter cloacae, 37° C., 18 hours
Description: as §1

[13] = tested on: Klebsiella pneumoniae K13; assay: MIC by agar dilution method; type: cell-based; conditions: 37° C., 18 hours
Description: as §1

[14] = tested on: P. sp. P22; assay: MIC by agar dilution method; type: cell-based; conditions: 37° C., 18 hours
Description: as §1

[15] = tested on: Ent. sp. E8; assay: MIC by agar dilution method; type: cell-based; conditions: Ent. sp. E8; agar dilution, 37° C., 18 hours; read-out: MIC
Description: as §1

[16] = tested on: S. aureus Smith; assay: MIC by agar dilution method; type: cell-based; conditions: Staphylococcus aureus, 37° C., 18 hours
Description: as §1

[17] = tested on: Providencia sp. P8; assay: MIC by agar dilution method; type: cell-based; conditions: Providencia sp. P8; agar dilution, 37° C., 18 hours; read-out: MIC
Description: as §1

[18] = tested on: Serratia marcesceus S18; assay: MIC by agar dilution method; type: cell-based; conditions: 37° C., 18 hours
Description: as §1

[19] = tested on: E. coli RGN823; assay: MIC by agar dilution method; type: cell-based; conditions: Escherichia coli, 37° C., 18 hours
Description: as §1

[20] = tested on: Escherichia coli K-12; assay: MIC by agar dilution method; type: cell-based; conditions: K12; Escherichia coli K-12; agar dilution, 37° C., 18 hours; read-out: MIC
Description: as §1

[21] = tested on: Citrobacter Freundii GN346; assay: MIC by agar dilution method; type: cell-based; conditions: 37° C., 18 hours
Description: as §1

[22] = tested on: Proteus mirabilis P6; assay: MIC by agar dilution method; type: cell-based; conditions: Proteus mirabilis P6; agar dilution, 37° C., 18 hours; read-out: MIC
Description: as §1

[23] = tested on: P. rettgeri P7; assay: MIC by agar dilution method; type: cell-based; conditions: Providencia rettgeri; P. rettgeri P7; agar dilution, 37° C., 18 hours; read-out: MIC
Description: as §1

[24] = tested on: Comamonas terrigena B996; assay: MIC by agar dilution method; type: cell-based; conditions: 37° C., 18 hours
Description: as §1

[25] = Stability (half life) in phosphate buffers of various pH; type: physicochemical; conditions: phosphate buffer, pH 4 to 9, 28° C.
Description: By adding 2% sodium hydroxide or 10% hydrochloric acid, the pH of 0.05 M phosphate buffer is adjusted to 4, 5, 6, 7, 8 and 9, respectively, and distributed into test tubes in an amount of 3 ml. Concentrated solution of antibiotic OA-6129A (0.05 ml) is added to each test tube and allowed to stand in a thermostatic chamber of 28° C. The time course curve of the concentration decrease of antibiotic OA-6129A is drawn by spectrophotometric measurement at 300 nm, from which the half life of the antibiotic at the indicated pH is calculated. As a control, antibiotic PS-5, a carbapenem compound described in the above-cited reference is simultaneously tested.

[26] = tested on: ddY mice; conditions: mouse, in vivo, ip, 500 mg/kg

## CC(OS(=O)(=O)O)[C@@H]1C(=O)N2C(C(=O)O)=C(SCCNC(=O)CCNC(=O)C(O)C(C)(C)CO)C[C@H]12 (relative stereo) [OA-6129C]
[1]
  MIC: 6.25 µg/mL (≈ 11.3 µM)
[2]
  MIC: 0.39 µg/mL (≈ 0.704 µM)
[3]
  MIC: 0.1 µg/mL (≈ 0.181 µM)
[4]
  MIC: 1.56 µg/mL (≈ 2.82 µM)
[5]
  MIC: 0.1 µg/mL (≈ 0.181 µM)
[6]
  MIC: 3.13 µg/mL (≈ 5.65 µM)
[7]
  MIC: 50 µg/mL (≈ 90.3 µM)
[8]
  MIC: 12.5 µg/mL (≈ 22.6 µM)
[9]
  MIC: 3.13 µg/mL (≈ 5.65 µM)
[10]
  MIC: > 50 µg/mL
[11]
  MIC: 0.78 µg/mL (≈ 1.41 µM)
[12]
  MIC: 50 µg/mL (≈ 90.3 µM)
[13]
  MIC: 12.5 µg/mL (≈ 22.6 µM)
[14]
  MIC: 0.78 µg/mL (≈ 1.41 µM)
[15]
  MIC: 1.56 µg/mL (≈ 2.82 µM)
[16]
  MIC: 0.78 µg/mL (≈ 1.41 µM)
[17]
  MIC: 0.2 µg/mL (≈ 0.361 µM)
[18]
  MIC: 12.5 µg/mL (≈ 22.6 µM)
[19]
  MIC: 0.39 µg/mL (≈ 0.704 µM)
[20]
  MIC: 0.78 µg/mL (≈ 1.41 µM)
[21]
  MIC: 50 µg/mL (≈ 90.3 µM)
[22]
  MIC: 0.78 µg/mL (≈ 1.41 µM)
[23]
  MIC: 0.2 µg/mL (≈ 0.361 µM)
[24]
  MIC: 0.1 µg/mL (≈ 0.181 µM)
[25]
  stability relative to OA-6129A: substantially the same stability as antibiotic OA-6129A
[26]
  acute toxicity: no acute toxicity is observed
